Where a name gives a salt, the structure may show the parent alone. Some results are limits rather than exact numbers.

In this assay the target is T1, His-tagged recombinant human TrkA (Homo sapiens, UniProt P04629).
T1 construct: 6HIS tagged cytoplasmic domain from Invitrogen, Catalog No. PV3144; purchased Invitrogen PV3144
T1 sequence (P04629 440-796 limits assumed): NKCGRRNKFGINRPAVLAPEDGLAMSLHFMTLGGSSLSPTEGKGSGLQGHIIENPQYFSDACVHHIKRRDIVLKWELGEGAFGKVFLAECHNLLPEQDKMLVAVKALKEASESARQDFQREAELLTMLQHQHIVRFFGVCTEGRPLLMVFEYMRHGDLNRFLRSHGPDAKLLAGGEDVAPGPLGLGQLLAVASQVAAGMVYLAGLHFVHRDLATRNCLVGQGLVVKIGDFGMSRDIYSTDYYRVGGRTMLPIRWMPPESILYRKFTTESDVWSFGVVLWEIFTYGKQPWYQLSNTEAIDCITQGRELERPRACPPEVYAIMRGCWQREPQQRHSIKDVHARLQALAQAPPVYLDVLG
Nature of the assay: TrkA LanthaScreen Eu Kinase Binding Assay. The conditions noted are these: averaged IC50; TR-FRET binding assay, 60 min, 22° C.; read-out: TrkA Enzyme IC50. How it is done:
TrkA binding activity was determined in a TrkA LanthaScreen™ Eu Kinase Binding Assay. 5 nM His-tagged recombinant human TrkA (6HIS tagged cytoplasmic domain from Invitrogen, Catalog No. PV3144) was incubated with 4 nM Alexa-Fluor® Tracer 236 (Invitrogen Cat. No. PV5592), 2 nM biotinylated anti-His (Invitrogen Cat. No. PV6090), and 2 nM europium-labeled Streptavidin (Invitrogen Cat. No. PV5899), in buffer (25 mM MOPS, pH 7.5, 5 mM MgCl2, 0.005% Triton X-100). Three fold serial dilutions of compounds of the invention in DMSO were added to a final percentage of 2% DMSO. After 60-minute incubation at 22° C., the reaction was measured using the EnVision multimode plate reader (PerkinElmer) via TR-FRET dual wavelength detection at […]. The percent of control was calculated using a ratiometric emission factor. The IC50 values were determined by fitting a four parameter model to the percent of control data.
Table A provides averaged IC50 values for compounds of the invention when tested in the assay of Example A, where A represents an averaged IC50 value <100 nM; B represents an averaged IC50 value from 100 to 1,000 nM; and C represents an averaged IC50 value from 1,000 to 10,000 nM.
In general terms: In TR-FRET formats the signal depends on donor and acceptor labels being close together.
With `Cc1c(-c2ccc(=O)n(C)c2)nn(-c2ccccc2)c1NC(=O)Nc1ccc(Cl)c2ccccc12` [Example 1, 1-(4-chloronaphthalen-1-yl)-3-(4-methyl-3-(1-methyl-6-oxo-1,6-dihydropyridin-3-yl)-1-phenyl-1H-pyrazol-5-yl)urea], the IC50 – broadly, the concentration at which inhibition is half-maximal – is less than 100 nM. In the case of `O=C(Nc1ccc(Cl)c2ccccc12)Nc1c2c(nn1-c1ccccc1)CCC2` [Example 2, 1-(4-chloronaphthalen-1-yl)-3-(2-phenyl-2,4,5,6-tetrahydrocyclopenta[c]pyrazol-3-yl)urea], the IC50 was less than 100 nM. Regarding `COCc1cc2c(NC(=O)Nc3c(C)c(-c4cnn(C)c4)nn3-c3ccccc3)cccc2cn1` [Example 3, 1-(1′,4-dimethyl-1-phenyl-1H,1′H-[3,4′-bipyrazol]-5-yl)-3-(3-(methoxymethyl)isoquinolin-5-yl)urea trifluoroacetate], the IC50 is less than 100 nM. Under `COCc1cc2c(NC(=O)Nc3c(C)c(-c4cnn(C)c4)nn3-c3ccccc3)c(Cl)ccc2cn1` [Example 4, 1-(6-chloro-3-(methoxymethyl)isoquinolin-5-yl)-3-(1′,4-dimethyl-1-phenyl-1H,1′H-[3,4′-bipyrazol]-5-yl)urea] stands 100 to 1000 nM; under `COCc1cc2c(NC(=O)Nc3c(C)c(-c4cnn(C)c4)nn3-c3ccccc3)ccc(Br)c2cn1` [Example 5, 1-(8-bromo-3-(methoxymethyl)isoquinolin-5-yl)-3-(1′,4-dimethyl-1-phenyl-1H,1′H-[3,4′-bipyrazol]-5-yl)urea], less than 100 nM. Under `COCc1cc2c(NC(=O)Nc3c(C)c(-c4cnn(C)c4)nn3-c3ccccc3)ccc(Cl)c2cn1` [Example 6, 1-(8-chloro-3-(methoxymethyl)isoquinolin-5-yl)-3-(1′,4-dimethyl-1-phenyl-1H,1′H-[3,4′-bipyrazol]-5-yl)urea] stands less than 100 nM; under `Cc1c(C(N)=O)nn(-c2ccccc2)c1NC(=O)Nc1ccc(Cl)c2ccccc12` [Example 7, 5-(3-(4-chloronaphthalen-1-yl)ureido)-4-methyl-1-phenyl-1H-pyrazole-3-carboxamide], less than 100 nM; under `CNC(=O)c1nn(-c2ccccc2)c(NC(=O)Nc2ccc(Cl)c3ccccc23)c1C` [Example 8, 5-(3-(4-chloronaphthalen-1-yl)ureido)-N,4-dimethyl-1-phenyl-1H-pyrazole-3-carboxamide], less than 100 nM. Under `Cc1c(-c2cnn(C)c2)nn(-c2ccccc2)c1NC(=O)Nc1ccc(Cl)c2ccccc12` [Example 9, 1-(4-chloronaphthalen-1-yl)-3-(1′,4-dimethyl-1-phenyl-1H,1′H-[3,4′-bipyrazol]-5-yl)urea] stands less than 100 nM; under `Cc1c(-c2cnn(C)c2)nn(-c2ccccc2)c1NC(=O)Nc1cccc2ccccc12` [Example 10, 1-(1′,4-dimethyl-1-phenyl-1H,1′H-[3,4′-bipyrazol]-5-yl)-3-(naphthalen-1-yl)urea], 100 to 1000 nM. For `O=C(Nc1ccc(Cl)c2ccccc12)Nc1c(Cl)c(OCC2CCNCC2)nn1-c1ccccc1` [Example 11, 1-(4-chloro-1-phenyl-3-(piperidin-4-ylmethoxy)-1H-pyrazol-5-yl)-3-(4-chloronaphthalen-1-yl)urea hydrochloride], the IC50 is less than 100 nM. Next, `Cc1c(C2CCNCC2)nn(-c2ccccc2)c1NC(=O)Nc1ccc(Cl)c2ccccc12` [Example 12, 1-(4-chloronaphthalen-1-yl)-3-(4-methyl-1-phenyl-3-(piperidin-4-yl)-1H-pyrazol-5-yl)urea hydrochloride]: less than 100 nM; `Cc1c(C2CCN(CC(F)(F)F)CC2)nn(-c2ccccc2)c1NC(=O)Nc1ccc(Cl)c2ccccc12` [Example 13, 1-(4-chloronaphthalen-1-yl)-3-(4-methyl-1-phenyl-3-(1-(2,2,2-trifluoroethyl)piperidin-4-yl)-1H-pyrazol-5-yl)urea]: less than 100 nM; `Cc1c(C2CCN(C)CC2)nn(-c2ccccc2)c1NC(=O)Nc1ccc(Cl)c2ccccc12` [Example 14, 1-(4-chloronaphthalen-1-yl)-3-(4-methyl-3-(1-methylpiperidin-4-yl)-1-phenyl-1H-pyrazol-5-yl)urea hydrochloride]: less than 100 nM.

As for `COC[C@H](O)COc1nn(-c2ccccc2)c(NC(=O)Nc2ccc(Cl)c3ccccc23)c1C` [Example 15, (S)-1-(4-chloronaphthalen-1-yl)-3-(3-(2-hydroxy-3-methoxypropoxy)-4-methyl-1-phenyl-1H-pyrazol-5-yl)urea], the half-inhibitory concentration (IC50) was less than 100 nM. Take `COCc1ccc2cccc(NC(=O)Nc3c(C)c(-c4ccc(=O)n(C)c4)nn3-c3ccccc3)c2c1` [Example 17, 1-(7-(methoxymethyl)naphthalen-1-yl)-3-(4-methyl-3-(1-methyl-6-oxo-1,6-dihydropyridin-3-yl)-1-phenyl-1H-pyrazol-5-yl)urea]: the IC50 is less than 100 nM. With `COCc1ccc2ccc(Cl)c(NC(=O)Nc3c(C)c(-c4cnn(C)c4)nn3-c3ccccc3)c2c1` [Example 18, 1-(2-chloro-7-(methoxymethyl)naphthalen-1-yl)-3-(1′,4-dimethyl-1-phenyl-1H,1′H-[3,4′-bipyrazol]-5-yl)urea], the IC50 is less than 100 nM.

On to `COCc1ccc2c(Cl)ccc(NC(=O)Nc3c(C)c(-c4cnn(C)c4)nn3-c3ccccc3)c2c1` [Example 19, 1-(4-chloro-7-(methoxymethyl)naphthalen-1-yl)-3-(1′,4-dimethyl-1-phenyl-1H,1′H-[3,4′-bipyrazol]-5-yl)urea], for which the IC50 was less than 100 nM. Next, `COCc1ccc2c(Cl)ccc(NC(=O)Nc3c(C)c(C4CCN(C)CC4)nn3-c3ccccc3)c2c1` [Example 20, 1-(4-chloro-7-(methoxymethyl)naphthalen-1-yl)-3-(4-methyl-3-(1-methylpiperidin-4-yl)-1-phenyl-1H-pyrazol-5-yl)urea hydrochloride]: less than 100 nM; `COCc1ccc2c(Cl)ccc(NC(=O)Nc3c(C)c(-c4ccc(=O)n(C)c4)nn3-c3ccccc3)c2c1` [Example 21, 1-(4-chloro-7-(methoxymethyl)naphthalen-1-yl)-3-(4-methyl-3-(1-methyl-6-oxo-1,6-dihydropyridin-3-yl)-1-phenyl-1H-pyrazol-5-yl)urea]: less than 100 nM; `Cc1c(C2CCNCC2)nn(-c2ccccc2)c1NC(=O)Nc1ncc(Cl)c2ccccc12` [Example 22, 1-(4-chloroisoquinolin-1-yl)-3-(4-methyl-1-phenyl-3-(piperidin-4-yl)-1H-pyrazol-5-yl)urea hydrochloride]: 1000 to 10000 nM.

Consider `Cc1c(-c2cnn(C)c2)nn(-c2ccccc2)c1NC(=O)Nc1ncc(Cl)c2ccccc12` [Example 23, 1-(4-chloroisoquinolin-1-yl)-3-(1′,4-dimethyl-1-phenyl-1H,1′H-[3,4′-bipyrazol]-5-yl)urea], for which the IC50 was 1000 to 10000 nM. Next, `Cc1c(-c2cnn(C)c2)nn(-c2ccccc2)c1NC(=O)Nc1cncc2ccccc12` [Example 24, 1-(1′,4-dimethyl-1-phenyl-1H,1′H-3,4′-bipyrazol-5-yl)-3-(isoquinolin-4-yl)urea]: 1000 to 10000 nM; `Cc1c(-c2ccc(=O)n(C)c2)nn(-c2ccccc2)c1NC(=O)Nc1cncc2ccccc12` [Example 25, 1-(isoquinolin-4-yl)-3-(4-methyl-3-(1-methyl-6-oxo-1,6-dihydropyridin-3-yl)-1-phenyl-1H-pyrazol-5-yl)urea]: 100 to 1000 nM.

Values taken from patent US9546156B2, “N-bicyclic aryl,N'-pyrazolyl urea, thiourea, guanidine cyanoguanidine compounds as TrkA kinase inhibitors” (Array BioPharma Inc., priority 2012, dated 2017).
